Data: US6287840A (Axys Pharmaceuticals, Inc., priority 1999, dated 2001)

Legend:
[1] = molecular target: T1, Cathepsin B from human placenta (Homo sapiens, UniProt P07858); assay: Inhibition of cathepsin B, Z-Arg-Arg-AMC fluorescence progress curves; assay type: biochemical; settings: 25° C., pH 6.2
T1 construct: Cathepsin B from human placenta, obtained from Sigma; purchased Sigma; host or cells: human placenta (tissue)
How it was run: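 Human placental enzyme (~10 nM) in 50 mM phosphate pH 6.2 with 2.5 mM DTT and 2.5 mM EDTA, 50 μM Z-Arg-Arg-AMC, inhibitors 30-0.001 μM, 25° C. AMC fluorescence (ex 380/em 460 nm) progress curves fitted for kobs; kobs/[I] reported, with kirr, KI and kirr/KI substrate-corrected for selected compounds.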

Cloned cathepsin S = molecular target: T2, Cloned cathepsin S (Homo sapiens, UniProt P25774); assay: Inhibition of cathepsin S, Z-Val-Val-Arg-AMC fluorescence progress curves; assay type: biochemical; settings: values marked *; 25° C., pH 6.5
T2 construct: made in house
How it was run: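 Fluorescence (380 nm excitation, 460 nm emission) was followed after adding sub-nM enzyme to pH 6.5 phosphate buffer with DTT, EDTA, Triton, 10 μM Z-VVR-AMC and 30-0.001 μM inhibitor at 25 °C. Fitted kobs values gave apparent kobs/[I]; for some, double-reciprocal plots gave kirr, KI and kirr/KI, KI corrected by 1+[S]/Km.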

calpain = assay: Inhibition (inactivation) of calpain, Suc-Leu-Tyr-AMC; assay type: biochemical; settings: values marked * (or %); pH 7.5, 5 mM CaCl2, 25° C.
Description: The inhibitors were tested against calpain at 1 or 2% as for the other enzymes. The reaction conditions were 50 mM Tris, pH 7.5, 5 mM CaCl2, 2.5 mM DTT, assayed at 25° C. The substrate was 100 μM Suc-Leu-Tyr-AMC.

T. cruzi = T. cruzi infected irradiated J774 cells; assay type: cell-based; set-up: dose or concentration left out as unconfirmed; settings: thereafter without inhibitor; compounds listed in decreasing order of effectiveness
Description: Irradiated J774 cells were infected with T. cruzi and simultaneously treated with […] of peptidyl vinyl derivatives for 5 days; thereafter without inhibitor. The following compounds were effective in decreasing order: Mu-Phe-ArgVSPh, Boc-Tyr(I2)-HphVSPh, Mu-Phe-VaIVSPh, Boc-Tic-HphVSPh, Mu-Phe-Ser(OBzl)VSPh, Mu-Leu-HphVSPh, Mu-Tyr(I2)-HphVSPh, Mu-Phe-LysVSPh, Mu-Tic-HphVSPh.

[2] = molecular target: T3, Cathepsin L from rat liver (Rattus norvegicus, UniProt P07154); assay: Inhibition of cathepsin L, Z-Phe-Arg-AMC fluorescence progress curves; assay type: biochemical
T3 construct: Cathepsin L from rat liver; from tissue; host or cells: rat liver
How it was run: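 Progress curves of AMC release (380/460 nm) over at least 3 inactivation half-times were fitted to kobs, reported as kobs/[I] or, via 1/[I] vs 1/kobs, kirr, KI (substrate-corrected) and kirr/KI.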

P. carinii = assay: Growth of P. carinii in vitro; assay type: cell-based; settings: 10 mM each
Description: Mu-Leu-HphVSPh and Mu-Phe-LysVSPh.HBr were evaluated for their effects on the growth of P. carinii in vitro, according to the procedure of M. S. Bartlett et al. [Antimicrotubule Benzimidazoles Inhibit In Vitro Growth of P. carinii, M. S. Bartlett, T. D. Edlind, M. M. Durkin, M. M. Shaw, S. F. Queener, and J. W. Smith, (1992) Antimicrobial Agents and Chemotherapy, 36, 779-782; Antimicrobial susceptibility of P. carinii in culture, M. S. Bartlett, R. Eichholtz, and J. W. Smith (1985) Diagn. Microbiol. Infect. Dis.; 3, 381-387. Mu-Leu-HphVSPh and Mu-Phe-LysVSPh.HBr (10 mM each) inhibited the growth of P. carinii 64% and 50% respectively.

[3] = system: human malarial parasite Plasmodium falciparum; assay: In vitro protease activity of malarial parasite, substrate Z-Phe-Arg-AMC; assay type: biochemical; settings: cells printed in nM; read-out: P. falciparum IC50 (human)
From the text: (§1) The following table summarizes the comparative IC50 values for selected cysteine protease inhibitors against the human malarial parasite Plasmodium falciparum and the mouse malarial parasite Plasmodium vinckei. The substrate used to measure in vitro protease activity was Z-Phe-Arg-AMC.

[4] = system: mouse malarial parasite Plasmodium vinckei; assay: as above; assay type: biochemical; settings: cells printed in nM; read-out: P. vinckei IC50 (murine)
From the text: as §1

cruzain, from T. cruzi = cruzain, from T. cruzi (Trypanosoma cruzi, UniProt P25779); assay: Inhibition of cruzain, as for cathepsin L; assay type: biochemical; settings: values marked *
How it was run: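 Run as for cathepsin L with 1 nM cruzain in 50 mM phosphate pH […], 2.5 mM DTT, 2.5 mM EDTA, 5 μM Z-Phe-Arg-AMC, at 25 °C, inhibitors 30-0.001 μM; fluorescence (ex 380/em 460 nm) followed continuously. kobs fitted from progress curves and kobs/[I] reported; selected compounds gave kirr, KI, kirr/KI, with KI corrected by (1+[S]/Km).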

[5] = Stability of selected inhibitors toward glutathione (Ellmans reagent); assay type: physicochemical; settings: inhibitor 5 mM, GSH 0.3 mM, pH=6.2, 20° C.
Description: The inhibitors (5 mM) were incubated with glutathione (GSH) (0.3 mM) in phosphate buffer (50 mM) at pH=6.2 containing 15% DMF at 20° C. Periodically, 50 μL samples were added to 1 mL of buffer and treated with 10 μL of 30 mM Ellmans reagent and the absorbance measured at 412 nm.

T3 sequence (P07154 114-288 limits assumed): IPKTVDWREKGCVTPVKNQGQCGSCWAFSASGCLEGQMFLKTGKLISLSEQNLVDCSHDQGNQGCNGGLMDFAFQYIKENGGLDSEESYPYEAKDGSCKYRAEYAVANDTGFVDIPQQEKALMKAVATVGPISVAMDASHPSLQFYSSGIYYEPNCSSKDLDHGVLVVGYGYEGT
T3 sequence (P07154 291-334 limits assumed): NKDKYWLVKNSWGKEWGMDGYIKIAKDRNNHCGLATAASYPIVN
Sequence of cruzain, from T. cruzi (P25779 123-337 limits assumed): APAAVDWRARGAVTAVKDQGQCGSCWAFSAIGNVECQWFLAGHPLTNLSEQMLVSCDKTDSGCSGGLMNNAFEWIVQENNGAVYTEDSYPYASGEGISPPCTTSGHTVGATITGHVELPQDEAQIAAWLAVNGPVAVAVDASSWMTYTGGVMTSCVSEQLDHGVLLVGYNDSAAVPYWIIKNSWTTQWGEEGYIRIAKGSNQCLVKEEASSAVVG
T2 sequence (P25774 115-331): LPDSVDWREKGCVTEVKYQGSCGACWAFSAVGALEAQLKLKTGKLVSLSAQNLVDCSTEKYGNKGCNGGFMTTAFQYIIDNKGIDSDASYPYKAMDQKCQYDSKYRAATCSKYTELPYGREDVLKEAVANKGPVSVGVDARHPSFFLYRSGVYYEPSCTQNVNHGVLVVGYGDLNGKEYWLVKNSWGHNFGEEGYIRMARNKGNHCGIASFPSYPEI

Br.NCCCC[C@@H](/C=C/S(=O)(=O)c1ccccc1)NC(=O)[C@H](Cc1ccccc1)NC(=O)N1CCOCC1 [Mu-Phe-LysVSPh.HBr, (G)-(E)-7-amino-3-(4-morpholinecarbonylphenylalanyl)amino-1-phenylsulfonyl-1-heptene hydrobromide]
kobs /[I]* (approximate second-order inactivation constant) ([1]; values marked *): 11,300 M^-1 sec^-1 | k/KI (kirr/KI) ([1]; values without asterisk): 11,700 M^-1 sec^-1 | kobs /[I]* (approximate second-order inactivation constant) (Cloned cathepsin S): 10,700,000 M^-1 sec^-1 | kobs /[I]* (calpain): < 50 M⁻¹ s⁻¹ | effectiveness against T. cruzi in J774 cells (T. cruzi): effective | kirr [2]: 0.16 s⁻¹ | Ki ([2]; corrected for substrate): 1400 nM | kobs /[I]* (approximate second-order inactivation constant) ([2]; values marked *, 25° C., pH 6.2): 220,000 M^-1 sec^-1 | k/KI (kirr/KI) ([2]; values without asterisk, 25° C., pH 6.2): 110,000 M^-1 sec^-1 | inhibition of the growth of P. carinii (P. carinii): 50% | IC50 [3]: 100 nM | IC50 [4]: 60 nM | kobs /[I]* (approximate second-order inactivation constant) (cruzain, from T. cruzi): 149,000 M^-1 sec^-1 | second order rate constant for the loss of GSH [5]: 0.00055 M⁻¹ s⁻¹
